Experimental data from patent US7795281B2, “Optically active dihydropyridine derivative” (Daiichi Sankyo Company, Limited, priority 2002, dated 2010).
pIC50, pKi: −log10 of the molar value. Each block holds one molecule with its values, some of them ahead of it.

Tests used:
[1] = test system: male spontaneously hypertensive rats; test: Blood pressure lowering action in hypertensive rats; format: in vivo, rat
Experimental: Blood Pressure Lowering Action in Hypertensive Rats
Cannulas for measuring blood pressure and administering drug were inserted into the inguinal artery and inguinal vein, respectively, of male spontaneously hypertensive rats age 25 to 29 weeks followed by intravenous administration of a compound under anesthesia and measurement of blood pressure over time for the course of 120 minutes.
The results of comparing the racemic form (20 μg/kg) and R form (10 μg/kg) are shown in Table 2, while the results of comparing the R form (3 μg/kg, 10 μg/kg) and the S form (1000 μg/kg) in a different series of experiments are shown in Table 3.

L calcium channel = target: T1, L calcium channel (Sus scrofa, UniProt A0A8W4FNC0); test: Receptor binding experiment using porcine myocardial microsomes (3H-nitrendipine); conditions: for pIC50 / pKi: porcine myocardial microsomes, average of two experiments; for pIC50: 3H-nitrendipine 0.1 nM, read-out: IC50 (50% inhibitory concentration of specific binding); for pKi: Ki=IC50/(1+[L]/Kd), read-out: Ki (inhibition constant)
T1 construct: from tissue; host or cells: porcine myocardium (microsome fraction)
T1 sequence (A0A8W4FNC0 1-2067): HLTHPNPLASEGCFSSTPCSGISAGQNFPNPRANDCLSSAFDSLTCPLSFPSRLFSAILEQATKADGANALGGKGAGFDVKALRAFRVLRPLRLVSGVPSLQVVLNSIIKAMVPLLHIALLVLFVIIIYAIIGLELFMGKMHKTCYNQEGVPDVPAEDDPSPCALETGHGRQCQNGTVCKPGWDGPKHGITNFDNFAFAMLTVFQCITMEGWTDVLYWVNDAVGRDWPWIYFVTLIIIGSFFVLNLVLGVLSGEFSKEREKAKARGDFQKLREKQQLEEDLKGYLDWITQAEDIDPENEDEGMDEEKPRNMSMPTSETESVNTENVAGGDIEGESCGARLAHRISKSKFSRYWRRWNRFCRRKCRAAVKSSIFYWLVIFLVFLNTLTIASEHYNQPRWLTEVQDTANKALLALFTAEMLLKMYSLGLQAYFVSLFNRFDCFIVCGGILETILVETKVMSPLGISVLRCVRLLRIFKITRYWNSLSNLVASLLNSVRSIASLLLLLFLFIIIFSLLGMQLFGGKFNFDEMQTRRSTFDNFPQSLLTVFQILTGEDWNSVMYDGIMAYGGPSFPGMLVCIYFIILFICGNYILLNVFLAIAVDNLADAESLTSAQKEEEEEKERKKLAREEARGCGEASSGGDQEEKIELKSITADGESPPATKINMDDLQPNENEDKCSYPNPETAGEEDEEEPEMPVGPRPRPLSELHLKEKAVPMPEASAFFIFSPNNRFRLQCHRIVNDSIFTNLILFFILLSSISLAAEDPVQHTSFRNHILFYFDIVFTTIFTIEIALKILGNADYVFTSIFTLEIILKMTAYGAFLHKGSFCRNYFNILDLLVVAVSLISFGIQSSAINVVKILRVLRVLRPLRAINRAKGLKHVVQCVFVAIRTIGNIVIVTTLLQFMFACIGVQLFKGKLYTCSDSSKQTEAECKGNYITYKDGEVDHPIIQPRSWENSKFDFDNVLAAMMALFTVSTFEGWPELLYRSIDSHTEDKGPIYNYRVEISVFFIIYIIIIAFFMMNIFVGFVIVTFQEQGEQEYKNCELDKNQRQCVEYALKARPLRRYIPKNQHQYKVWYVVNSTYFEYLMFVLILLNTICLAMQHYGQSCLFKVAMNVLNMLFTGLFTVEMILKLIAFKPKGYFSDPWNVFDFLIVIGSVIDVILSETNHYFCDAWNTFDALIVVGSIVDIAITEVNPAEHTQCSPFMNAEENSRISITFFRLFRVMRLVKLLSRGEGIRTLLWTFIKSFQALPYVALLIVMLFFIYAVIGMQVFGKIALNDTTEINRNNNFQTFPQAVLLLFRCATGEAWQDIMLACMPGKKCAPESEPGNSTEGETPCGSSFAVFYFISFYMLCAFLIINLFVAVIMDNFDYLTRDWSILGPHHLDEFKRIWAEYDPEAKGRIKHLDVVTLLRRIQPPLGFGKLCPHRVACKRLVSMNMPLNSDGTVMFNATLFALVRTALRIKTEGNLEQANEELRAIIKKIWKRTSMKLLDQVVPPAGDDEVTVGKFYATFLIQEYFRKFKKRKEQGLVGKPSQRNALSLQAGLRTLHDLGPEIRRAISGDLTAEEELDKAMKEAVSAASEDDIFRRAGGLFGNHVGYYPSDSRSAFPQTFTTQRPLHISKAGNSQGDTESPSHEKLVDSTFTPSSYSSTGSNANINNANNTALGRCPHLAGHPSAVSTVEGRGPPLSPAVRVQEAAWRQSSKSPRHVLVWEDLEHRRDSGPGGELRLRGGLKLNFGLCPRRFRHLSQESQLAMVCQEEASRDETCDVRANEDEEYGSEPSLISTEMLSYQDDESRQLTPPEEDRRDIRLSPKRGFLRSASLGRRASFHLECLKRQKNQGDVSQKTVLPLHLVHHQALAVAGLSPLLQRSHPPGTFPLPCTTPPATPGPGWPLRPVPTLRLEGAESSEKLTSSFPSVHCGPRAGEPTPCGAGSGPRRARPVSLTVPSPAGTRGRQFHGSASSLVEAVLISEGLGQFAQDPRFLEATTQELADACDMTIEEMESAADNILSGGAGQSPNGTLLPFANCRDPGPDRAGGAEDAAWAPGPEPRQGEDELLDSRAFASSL
Experimental: Receptor Binding Experiment Using Porcine Myocardial Microsomes
Porcine myocardial microsomes were used for the source of the L calcium channel, while ^3H-nitrendipine was used for the ligand of the L calcium channel. The microsomes (0.2 mg protein/ml), ^3H-nitrendipine (0.1 nM) and test drug (racemic form, R form or S form) were allowed to react at room temperature for 30 minutes in HEPES buffer (50 mM, pH 7.4) followed by measurement of the ^3H-nitrendipine that bound to the microsome fraction with a liquid scintillation counter. The count in the presence of 10 μM non-labeled nitrendipine (amount of non-specific binding) was then subtracted to determine the amount of specific binding. The relationship between the concentration and inhibition rate of specific binding was approximated to a logistic curve for each test drug to determine IC50 (50% inhibitory concentration of specific binding). The Ki value (inhibition constant) for each test drug was then determined from the following formula using the Kd (dissociation constant) of nitrendipine as separately determined from a Scatchard plot: Ki=IC50/(1+[L]/Kd) (wherein [L] is the concentration of ^3H-nitrendipine).

pIC50 (L calcium channel): 8.51
pKi (L calcium channel): 8.68
SMILES: CC1=C(C(=O)OC(C)C)C(c2cccc([N+](=O)[O-])c2)C(C(=O)OC2CN(C(c3ccccc3)c3ccccc3)C2)=C(N)N1 (racemic) [Racemic form, (±)-2-amino-1,4-dihydro-6-methyl-4-(3-nitrophenyl)-3,5-pyridinedicarboxylic acid 3-(1-diphenylmethylazetidin-3-yl) ester 5-isopropyl ester, reference compound]
Change in blood pressure ([1]; 20 μg/kg i.v., 0 minutes, Table 2, mean ± standard error): 0 ± 0 mmHg
Change in blood pressure ([1]; 20 μg/kg i.v., 10 minutes, Table 2, mean ± standard error): −21 ± 2 mmHg
Change in blood pressure ([1]; 20 μg/kg i.v., 30 minutes, Table 2, mean ± standard error): −35 ± 4 mmHg
Change in blood pressure ([1]; 20 μg/kg i.v., 60 minutes, Table 2, mean ± standard error): −42 ± 6 mmHg
Change in blood pressure ([1]; 20 μg/kg i.v., 90 minutes, Table 2, mean ± standard error): −45 ± 6 mmHg
Change in blood pressure ([1]; 20 μg/kg i.v., 120 minutes, Table 2, mean ± standard error): −48 ± 7 mmHg

pIC50 (L calcium channel): 6.15
pKi (L calcium channel): 6.34
SMILES: CC1=C(C(=O)OC(C)C)[C@H](c2cccc([N+](=O)[O-])c2)C(C(=O)OC2CN(C(c3ccccc3)c3ccccc3)C2)=C(N)N1 [S form, (S)-2-amino-1,4-dihydro-6-methyl-4-(3-nitrophenyl)-3,5-pyridinedicarboxylic acid 3-(1-diphenylmethylazetidin-3-yl) ester 5-isopropyl ester]
Change in blood pressure ([1]; 1000 μg/kg i.v., 0 minutes, Table 3 (different series of experiments), mean ± standard error): 0 ± 0 mmHg
Change in blood pressure ([1]; 1000 μg/kg i.v., 10 minutes, Table 3 (different series of experiments), mean ± standard error): −5 ± 1 mmHg
Change in blood pressure ([1]; 1000 μg/kg i.v., 30 minutes, Table 3 (different series of experiments), mean ± standard error): −18 ± 6 mmHg
Change in blood pressure ([1]; 1000 μg/kg i.v., 60 minutes, Table 3 (different series of experiments), mean ± standard error): −29 ± 10 mmHg
Change in blood pressure ([1]; 1000 μg/kg i.v., 90 minutes, Table 3 (different series of experiments), mean ± standard error): −36 ± 7 mmHg
Change in blood pressure ([1]; 1000 μg/kg i.v., 120 minutes, Table 3 (different series of experiments), mean ± standard error): −35 ± 4 mmHg

L calcium channel inhibitory activity, potency relative to S form (L calcium channel; R form vs S form): roughly 500 times
L calcium channel inhibitory activity, potency relative to racemic form (L calcium channel; R form vs racemic form): more than twice as potent
pIC50 (L calcium channel): 8.89
pKi (L calcium channel): 9.06
SMILES: CC1=C(C(=O)OC(C)C)[C@@H](c2cccc([N+](=O)[O-])c2)C(C(=O)OC2CN(C(c3ccccc3)c3ccccc3)C2)=C(N)N1 [R form, (R)-2-amino-1,4-dihydro-6-methyl-4-(3-nitrophenyl)-3,5-pyridinedicarboxylic acid 3-(1-diphenylmethylazetidin-3-yl) ester 5-isopropyl ester]
Change in blood pressure ([1]; 3 μg/kg i.v., 0 minutes, Table 3 (different series of experiments), mean ± standard error): 0 ± 0 mmHg
Change in blood pressure ([1]; 3 μg/kg i.v., 10 minutes, Table 3 (different series of experiments), mean ± standard error): −3 ± 3 mmHg
Change in blood pressure ([1]; 3 μg/kg i.v., 30 minutes, Table 3 (different series of experiments), mean ± standard error): −14 ± 3 mmHg
Change in blood pressure ([1]; 3 μg/kg i.v., 60 minutes, Table 3 (different series of experiments), mean ± standard error): −28 ± 3 mmHg
Change in blood pressure ([1]; 3 μg/kg i.v., 90 minutes, Table 3 (different series of experiments), mean ± standard error): −34 ± 5 mmHg
Change in blood pressure ([1]; 3 μg/kg i.v., 120 minutes, Table 3 (different series of experiments), mean ± standard error): −34 ± 10 mmHg
Change in blood pressure ([1]; 10 μg/kg i.v., 0 minutes, Table 2, mean ± standard error): 0 ± 0 mmHg
Change in blood pressure ([1]; 10 μg/kg i.v., 0 minutes, Table 3 (different series of experiments), mean ± standard error): 0 ± 0 mmHg
Change in blood pressure ([1]; 10 μg/kg i.v., 10 minutes, Table 2, mean ± standard error): −17 ± 4 mmHg
Change in blood pressure ([1]; 10 μg/kg i.v., 10 minutes, Table 3 (different series of experiments), mean ± standard error): −23 ± 5 mmHg
Change in blood pressure ([1]; 10 μg/kg i.v., 30 minutes, Table 2, mean ± standard error): −28 ± 5 mmHg
Change in blood pressure ([1]; 10 μg/kg i.v., 30 minutes, Table 3 (different series of experiments), mean ± standard error): −36 ± 6 mmHg
Change in blood pressure ([1]; 10 μg/kg i.v., 60 minutes, Table 2, mean ± standard error): −43 ± 7 mmHg
Change in blood pressure ([1]; 10 μg/kg i.v., 60 minutes, Table 3 (different series of experiments), mean ± standard error): −49 ± 11 mmHg
Change in blood pressure ([1]; 10 μg/kg i.v., 90 minutes, Table 2, mean ± standard error): −45 ± 7 mmHg
Change in blood pressure ([1]; 10 μg/kg i.v., 90 minutes, Table 3 (different series of experiments), mean ± standard error): −54 ± 8 mmHg
Change in blood pressure ([1]; 10 μg/kg i.v., 120 minutes, Table 2, mean ± standard error): −47 ± 6 mmHg
Change in blood pressure ([1]; 10 μg/kg i.v., 120 minutes, Table 3 (different series of experiments), mean ± standard error): −61 ± 6 mmHg
Blood pressure lowering activity, potency relative to S form ([1]; R form vs S form): roughly 300 times
Blood pressure lowering activity, potency relative to racemic form ([1]; R form vs racemic form): roughly twice as potent
